From US12522583B2, “Benzimidazole derivatives and aza-benzimidazole derivatives as Janus kinase 2 inhibitors and uses thereof” (Dana-Farber Cancer Institute, Inc., priority 2018, dated 2026)

Tests used:
Experiment in all cases: KINOMEscan
Type in all cases: binding
Details in all cases: read-out: percent control
STK39 = STK39 (Homo sapiens (Human), UniProt Q9UEW8)
Excerpt: (§1) Example 2. In Vitro Kinase Selectivity Profiling of the Compounds of the Present Disclosure

HPK1 = HPK1 (Homo sapiens (Human), UniProt Q92918)
Excerpt: as §1

AURKA = AURKA (Homo sapiens (Human), UniProt O14965)
Excerpt: as §1

MEK3 = MEK3 (Homo sapiens (Human), UniProt P46734)
Excerpt: as §1

IRAK1 = IRAK1 (Homo sapiens (Human), UniProt P51617)
Excerpt: as §1

PYK2 = PYK2 (Homo sapiens (Human), UniProt Q14289)
Excerpt: as §1

GRK7 = GRK7 (Homo sapiens (Human), UniProt Q8WTQ7)
Excerpt: as §1

PKNB(M.tuberculosis) = PKNB(M.tuberculosis) (Mycobacterium tuberculosis (strain ATCC 25618 / H37Rv), UniProt P9WI81)
Excerpt: as §1

STK16 = STK16 (Homo sapiens (Human), UniProt O75716)
Excerpt: as §1

MINK = MINK (Homo sapiens (Human), UniProt Q8N4C8)
Excerpt: as §1

PLK4 = PLK4 (Homo sapiens (Human), UniProt O00444)
Excerpt: as §1

SGK2 = SGK2 (Homo sapiens (Human), UniProt Q9HBY8)
Excerpt: as §1

NEK9 = NEK9 (Homo sapiens (Human), UniProt Q8TD19)
Excerpt: as §1

TESK1 = TESK1 (Homo sapiens (Human), UniProt Q15569)
Excerpt: as §1

PIK3CA(E545A) = PIK3CA(E545A) (Homo sapiens (Human), UniProt P42336, E545A)
Excerpt: as §1

SIK2 = SIK2 (Homo sapiens (Human), UniProt Q9H0K1)
Excerpt: as §1

CAMKK2 = CAMKK2 (Homo sapiens (Human), UniProt Q96RR4)
Excerpt: as §1

PRKCQ = PRKCQ (Homo sapiens (Human), UniProt Q04759)
Excerpt: as §1

[1] = target: EGFR(L747-S752del, P753S) (Homo sapiens (Human), UniProt P00533, DEL747-752/P753S)
Excerpt: as §1

p38-delta = p38-delta (Homo sapiens (Human), UniProt O15264)
Excerpt: as §1

EPHA2 = EPHA2 (Homo sapiens (Human), UniProt P29317)
Excerpt: as §1

PIP5K1C = PIP5K1C (Homo sapiens (Human), UniProt O60331)
Excerpt: as §1

[2] = target: ABL1(T315I)-nonphosphorylated (Homo sapiens (Human), UniProt P00519, T315I)
Excerpt: as §1

MEK6 = MEK6 (Homo sapiens (Human), UniProt P52564)
Excerpt: as §1

EGFR(T790M) = EGFR(T790M) (Homo sapiens (Human), UniProt P00533, T790M)
Excerpt: as §1

FLT3(D835V) = FLT3(D835V) (Homo sapiens (Human), UniProt P36888, D835V)
Excerpt: as §1

CDK4-cyclinD3 = CDK4-cyclinD3 (Homo sapiens (Human), UniProt P11802)
Excerpt: as §1

ASK2 = ASK2 (Homo sapiens (Human), UniProt O95382)
Excerpt: as §1

ERK4 = ERK4 (Homo sapiens (Human), UniProt P31152)
Excerpt: as §1

FLT3(N841I) = FLT3(N841I) (Homo sapiens (Human), UniProt P36888, N841I)
Excerpt: as §1

WNK2 = WNK2 (Homo sapiens (Human), UniProt Q9Y3S1)
Excerpt: as §1

AMPK-alpha2 = AMPK-alpha2 (Homo sapiens (Human), UniProt P54646)
Excerpt: as §1

ULK2 = ULK2 (Homo sapiens (Human), UniProt Q8IYT8)
Excerpt: as §1

EPHB1 = EPHB1 (Homo sapiens (Human), UniProt P54762)
Excerpt: as §1

SIK = SIK (Homo sapiens (Human), UniProt P57059)
Excerpt: as §1

WEE2 = WEE2 (Homo sapiens (Human), UniProt P0C1S8)
Excerpt: as §1

PDPK1 = PDPK1 (Homo sapiens (Human), UniProt O15530)
Excerpt: as §1

INSR = INSR (Homo sapiens (Human), UniProt P06213)
Excerpt: as §1

NEK2 = NEK2 (Homo sapiens (Human), UniProt P51955)
Excerpt: as §1

CAMK4 = CAMK4 (Homo sapiens (Human), UniProt Q16566)
Excerpt: as §1

MINK, sequence (Q8N4C8 whole entry): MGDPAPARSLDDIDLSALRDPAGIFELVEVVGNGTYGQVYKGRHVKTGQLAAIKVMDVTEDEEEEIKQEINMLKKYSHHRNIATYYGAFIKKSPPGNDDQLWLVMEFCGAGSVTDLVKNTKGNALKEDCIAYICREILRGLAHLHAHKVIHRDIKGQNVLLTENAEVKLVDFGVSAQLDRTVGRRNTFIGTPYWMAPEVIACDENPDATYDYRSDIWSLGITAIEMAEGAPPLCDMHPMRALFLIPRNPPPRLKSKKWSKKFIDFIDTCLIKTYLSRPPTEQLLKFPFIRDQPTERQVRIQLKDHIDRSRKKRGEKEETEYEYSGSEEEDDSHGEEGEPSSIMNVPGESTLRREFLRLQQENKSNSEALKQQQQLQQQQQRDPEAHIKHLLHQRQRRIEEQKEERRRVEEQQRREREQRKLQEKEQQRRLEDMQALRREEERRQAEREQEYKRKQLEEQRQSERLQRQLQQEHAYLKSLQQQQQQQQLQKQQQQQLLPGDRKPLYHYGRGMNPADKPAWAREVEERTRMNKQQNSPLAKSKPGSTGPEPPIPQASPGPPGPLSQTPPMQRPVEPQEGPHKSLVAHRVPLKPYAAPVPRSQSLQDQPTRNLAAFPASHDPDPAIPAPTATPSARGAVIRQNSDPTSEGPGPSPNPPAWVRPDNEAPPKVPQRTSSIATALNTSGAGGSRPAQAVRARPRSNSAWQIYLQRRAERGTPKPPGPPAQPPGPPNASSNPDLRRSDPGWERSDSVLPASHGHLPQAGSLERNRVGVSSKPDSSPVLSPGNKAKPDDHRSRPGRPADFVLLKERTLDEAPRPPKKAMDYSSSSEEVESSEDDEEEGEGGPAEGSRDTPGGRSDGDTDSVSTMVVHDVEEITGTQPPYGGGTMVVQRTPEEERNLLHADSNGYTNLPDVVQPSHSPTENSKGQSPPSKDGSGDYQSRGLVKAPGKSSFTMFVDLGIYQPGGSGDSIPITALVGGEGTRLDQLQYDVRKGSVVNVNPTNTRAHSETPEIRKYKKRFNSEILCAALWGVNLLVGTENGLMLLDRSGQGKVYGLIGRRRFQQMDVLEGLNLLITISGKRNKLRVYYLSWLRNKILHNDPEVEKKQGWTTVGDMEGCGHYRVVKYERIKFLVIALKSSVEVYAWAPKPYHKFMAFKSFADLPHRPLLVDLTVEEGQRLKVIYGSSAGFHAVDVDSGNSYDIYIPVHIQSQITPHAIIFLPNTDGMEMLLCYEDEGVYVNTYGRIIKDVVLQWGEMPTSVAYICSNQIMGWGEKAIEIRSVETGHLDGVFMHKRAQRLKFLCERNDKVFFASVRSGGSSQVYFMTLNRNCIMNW
STK16, sequence (O75716 whole entry): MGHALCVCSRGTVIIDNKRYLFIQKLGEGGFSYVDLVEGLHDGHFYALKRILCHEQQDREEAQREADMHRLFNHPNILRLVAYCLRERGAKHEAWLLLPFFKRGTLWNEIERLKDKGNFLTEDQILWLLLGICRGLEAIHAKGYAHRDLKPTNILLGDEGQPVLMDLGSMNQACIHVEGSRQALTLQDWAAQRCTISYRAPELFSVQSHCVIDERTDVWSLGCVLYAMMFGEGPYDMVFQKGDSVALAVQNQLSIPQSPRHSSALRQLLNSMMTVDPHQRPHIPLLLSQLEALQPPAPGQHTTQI
ULK2, sequence (Q8IYT8 whole entry): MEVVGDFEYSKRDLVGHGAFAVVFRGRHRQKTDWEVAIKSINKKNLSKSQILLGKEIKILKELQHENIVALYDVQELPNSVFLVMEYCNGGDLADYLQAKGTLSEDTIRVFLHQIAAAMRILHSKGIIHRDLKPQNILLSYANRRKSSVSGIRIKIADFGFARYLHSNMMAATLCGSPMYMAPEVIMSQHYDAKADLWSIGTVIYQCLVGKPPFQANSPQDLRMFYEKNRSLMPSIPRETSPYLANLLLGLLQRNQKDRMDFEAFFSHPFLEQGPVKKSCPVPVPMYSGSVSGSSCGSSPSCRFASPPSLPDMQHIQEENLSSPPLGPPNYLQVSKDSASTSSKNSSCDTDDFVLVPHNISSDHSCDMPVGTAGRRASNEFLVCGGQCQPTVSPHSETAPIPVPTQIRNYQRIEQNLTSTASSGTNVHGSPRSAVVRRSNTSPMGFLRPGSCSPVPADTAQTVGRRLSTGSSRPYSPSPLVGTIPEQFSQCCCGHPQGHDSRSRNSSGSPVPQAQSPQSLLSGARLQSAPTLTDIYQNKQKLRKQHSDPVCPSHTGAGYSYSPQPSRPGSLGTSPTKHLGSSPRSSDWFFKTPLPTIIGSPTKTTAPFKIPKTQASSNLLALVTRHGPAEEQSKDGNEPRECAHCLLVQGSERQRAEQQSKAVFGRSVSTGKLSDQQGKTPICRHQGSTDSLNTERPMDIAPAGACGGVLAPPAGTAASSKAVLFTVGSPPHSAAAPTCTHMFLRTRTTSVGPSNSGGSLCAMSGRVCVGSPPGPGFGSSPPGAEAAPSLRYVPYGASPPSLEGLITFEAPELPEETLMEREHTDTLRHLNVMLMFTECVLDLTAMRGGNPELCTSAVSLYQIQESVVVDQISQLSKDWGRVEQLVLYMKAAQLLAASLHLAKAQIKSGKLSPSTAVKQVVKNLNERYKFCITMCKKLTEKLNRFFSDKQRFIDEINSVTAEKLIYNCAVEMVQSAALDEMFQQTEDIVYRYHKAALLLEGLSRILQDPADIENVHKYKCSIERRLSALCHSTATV
INSR, sequence (P06213 28-1382): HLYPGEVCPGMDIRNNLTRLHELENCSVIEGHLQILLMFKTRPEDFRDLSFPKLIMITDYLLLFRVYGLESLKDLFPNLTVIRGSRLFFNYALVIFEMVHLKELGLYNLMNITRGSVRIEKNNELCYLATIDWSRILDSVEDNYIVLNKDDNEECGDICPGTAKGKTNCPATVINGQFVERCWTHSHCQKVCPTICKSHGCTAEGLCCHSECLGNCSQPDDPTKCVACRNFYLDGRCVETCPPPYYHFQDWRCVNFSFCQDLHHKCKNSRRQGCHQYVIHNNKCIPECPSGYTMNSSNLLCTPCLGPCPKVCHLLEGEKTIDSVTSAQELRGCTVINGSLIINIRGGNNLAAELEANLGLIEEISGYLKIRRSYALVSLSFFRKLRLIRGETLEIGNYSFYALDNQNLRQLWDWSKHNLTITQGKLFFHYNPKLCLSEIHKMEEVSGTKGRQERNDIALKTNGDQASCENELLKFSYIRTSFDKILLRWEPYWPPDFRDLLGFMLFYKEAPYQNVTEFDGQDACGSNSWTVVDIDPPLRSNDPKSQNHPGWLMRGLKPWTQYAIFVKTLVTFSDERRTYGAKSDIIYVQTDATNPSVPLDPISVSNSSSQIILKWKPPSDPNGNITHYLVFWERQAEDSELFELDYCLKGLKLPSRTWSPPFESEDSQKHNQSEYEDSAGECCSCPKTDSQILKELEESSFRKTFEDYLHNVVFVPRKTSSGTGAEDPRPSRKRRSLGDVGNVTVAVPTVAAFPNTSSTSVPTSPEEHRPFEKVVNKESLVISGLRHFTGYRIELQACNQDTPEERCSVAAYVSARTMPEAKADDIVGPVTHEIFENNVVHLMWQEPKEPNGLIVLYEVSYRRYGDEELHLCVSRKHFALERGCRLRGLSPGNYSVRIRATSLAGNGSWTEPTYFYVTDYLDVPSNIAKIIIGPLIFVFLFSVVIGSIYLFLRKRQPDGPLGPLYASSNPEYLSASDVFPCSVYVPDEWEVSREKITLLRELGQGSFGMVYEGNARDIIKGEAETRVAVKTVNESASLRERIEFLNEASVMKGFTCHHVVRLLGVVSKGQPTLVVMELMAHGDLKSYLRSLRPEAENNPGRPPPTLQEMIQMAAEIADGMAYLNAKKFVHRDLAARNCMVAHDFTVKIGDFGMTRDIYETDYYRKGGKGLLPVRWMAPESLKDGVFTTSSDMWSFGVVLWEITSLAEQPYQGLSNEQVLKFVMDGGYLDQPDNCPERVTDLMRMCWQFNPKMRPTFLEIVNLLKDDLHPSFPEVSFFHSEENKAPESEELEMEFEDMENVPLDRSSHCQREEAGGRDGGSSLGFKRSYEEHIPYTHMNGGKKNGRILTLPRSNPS
SGK2, sequence (Q9HBY8 whole entry): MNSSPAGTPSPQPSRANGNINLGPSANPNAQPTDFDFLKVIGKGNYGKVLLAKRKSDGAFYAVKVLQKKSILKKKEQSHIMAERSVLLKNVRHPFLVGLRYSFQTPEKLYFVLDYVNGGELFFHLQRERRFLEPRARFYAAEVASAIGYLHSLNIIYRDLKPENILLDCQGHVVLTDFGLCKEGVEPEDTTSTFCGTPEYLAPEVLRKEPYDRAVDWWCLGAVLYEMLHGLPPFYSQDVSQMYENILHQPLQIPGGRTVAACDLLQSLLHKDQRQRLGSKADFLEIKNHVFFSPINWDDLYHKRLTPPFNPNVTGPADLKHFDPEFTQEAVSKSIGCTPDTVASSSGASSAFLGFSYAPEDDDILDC
NEK2, sequence (P51955 whole entry): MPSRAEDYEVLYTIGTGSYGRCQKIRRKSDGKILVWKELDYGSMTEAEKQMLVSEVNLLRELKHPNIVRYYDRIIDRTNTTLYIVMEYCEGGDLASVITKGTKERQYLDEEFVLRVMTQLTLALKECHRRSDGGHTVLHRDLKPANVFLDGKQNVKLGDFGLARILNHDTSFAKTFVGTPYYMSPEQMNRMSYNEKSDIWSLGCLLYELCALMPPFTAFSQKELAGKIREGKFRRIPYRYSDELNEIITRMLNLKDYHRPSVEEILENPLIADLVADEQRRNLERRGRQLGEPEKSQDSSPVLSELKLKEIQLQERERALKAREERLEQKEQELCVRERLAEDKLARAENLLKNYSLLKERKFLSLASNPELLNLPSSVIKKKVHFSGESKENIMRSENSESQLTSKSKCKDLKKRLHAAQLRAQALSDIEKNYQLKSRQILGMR

| Compound | remaining binding at 1 µM (STK39) [%] | remaining binding at 1 µM (HPK1) [%] | remaining binding at 1 µM (AURKA) [%] | remaining binding at 1 µM (MEK3) [%] | remaining binding at 1 µM (IRAK1) [%] | remaining binding at 1 µM (PYK2) [%] | remaining binding at 1 µM (GRK7) [%] | remaining binding at 1 µM (PKNB(M.tuberculosis)) [%] | remaining binding at 1 µM (STK16) [%] | remaining binding at 1 µM (MINK) [%] | remaining binding at 1 µM (PLK4) [%] | remaining binding at 1 µM (SGK2) [%] | remaining binding at 1 µM (NEK9) [%] | remaining binding at 1 µM (TESK1) [%] | remaining binding at 1 µM (PIK3CA(E545A)) [%] | remaining binding at 1 µM (SIK2) [%] | remaining binding at 1 µM (CAMKK2) [%] | remaining binding at 1 µM (PRKCQ) [%] | remaining binding at 1 µM [1] [%] | remaining binding at 1 µM (p38-delta) [%] | other results |
| --- | --- | --- | --- | --- | --- | --- | --- | --- | --- | --- | --- | --- | --- | --- | --- | --- | --- | --- | --- | --- | --- |
| CCN1CCN(Cc2ccc(Nc3nc4ccc(Oc5ccnc(NC(C)=O)c5)cc4n3C)cc2C(F)(F)F)CC1 [Compound I-2] | 62 | 69 | 69 | 57 | 79 | 33 | 88 | 80 | 59 | 92 | 92 | 89 | 87 | 67 | 100 | 100 | 100 | 67 | 80 | 77 | remaining binding at 1 µM (EPHA2): 100%; remaining binding at 1 µM (PIP5K1C): 81%; remaining binding at 1 µM [2]: 46%; remaining binding at 1 µM (MEK6): 88%; remaining binding at 1 µM (EGFR(T790M)): 96%; remaining binding at 1 µM (FLT3(D835V)): 51%; remaining binding at 1 µM (CDK4-cyclinD3): 72%; remaining binding at 1 µM (ASK2): 97%; remaining binding at 1 µM (ERK4): 100%; remaining binding at 1 µM (FLT3(N841I)): 11%; remaining binding at 1 µM (WNK2): 98%; remaining binding at 1 µM (AMPK-alpha2): 100%; remaining binding at 1 µM (ULK2): 91%; remaining binding at 1 µM (EPHB1): 94%; remaining binding at 1 µM (SIK): 95%; remaining binding at 1 µM (WEE2): 100%; remaining binding at 1 µM (PDPK1): 94%; remaining binding at 1 µM (INSR): 20%; remaining binding at 1 µM (NEK2): 97%; remaining binding at 1 µM (CAMK4): 98% |
| CCN1CCN(Cc2ccc(Nc3nc4ccc(Oc5ccnc(NC(C)=O)c5)c(C)c4n3C)cc2C(F)(F)F)CC1 [Compound I-6, N-(4-(2-(4-((4-ethylpiperazin-1-yl)methyl)-3-(trifluoromethyl)phenylamino)-1,7-dimethyl-1H-benzo[d]imidazol-6-yloxy)pyridin-2-yl)acetamide] | 93 | 56 | 98 | 87 | 38 | 8.8 | 95 | 82 | 82 | 59 | 100 | 85 | 68 | 62 | 100 | 97 | 99 | 97 | 94 | 73 | remaining binding at 1 µM (EPHA2): 68%; remaining binding at 1 µM (PIP5K1C): 85%; remaining binding at 1 µM [2]: 32%; remaining binding at 1 µM (MEK6): 71%; remaining binding at 1 µM (EGFR(T790M)): 83%; remaining binding at 1 µM (FLT3(D835V)): 40%; remaining binding at 1 µM (CDK4-cyclinD3): 95%; remaining binding at 1 µM (ASK2): 89%; remaining binding at 1 µM (ERK4): 90%; remaining binding at 1 µM (FLT3(N841I)): 14%; remaining binding at 1 µM (WNK2): 66%; remaining binding at 1 µM (AMPK-alpha2): 92%; remaining binding at 1 µM (ULK2): 100%; remaining binding at 1 µM (EPHB1): 95%; remaining binding at 1 µM (SIK): 98%; remaining binding at 1 µM (WEE2): 100%; remaining binding at 1 µM (PDPK1): 93%; remaining binding at 1 µM (INSR): 12%; remaining binding at 1 µM (NEK2): 91%; remaining binding at 1 µM (CAMK4): 100% |
